Laboratory results as given in patent US9687545B2, “Nonspecific immunostimulator composition, method of preparation the same, and its use” (BARODON-S.F.CORP., priority 2014, dated 2017).
Like-named read-outs stand apart in the source and are kept apart here.

System: highly pathogenic AIV H5N1
Format: in vivo, BALB/C mice
Conditions: for body weight change after challenge: challenged groups treated with BARODON or TamiFlu, 2 weeks

CCOC(=O)C1=C[C@@H](OC(CC)CC)[C@H](NC(C)=O)[C@@H](N)C1 [TamiFlu]
survival rate (TamiFlu 10 mg/kg/day orally for 5 days after challenge, by D12): 75%
body weight change after challenge: none of the groups treated with TamiFlu and BARODON exhibited weight gain after challenge
body weight change after challenge (listed as TamiFlue): no difference in weight change between groups
